Experiments:
Assay in all cases: Test D controlled growth environment herbicide test, pre- and postemergence
Format in all cases: in vivo
kochia (Kochia scoparia) = tested on: kochia (Kochia scoparia)
Procedure, shortened: (§1)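 Species sown in silt loam and sprayed preemergence, or grown in peat-based medium to 2–18 cm (1- to 4-leaf stage) and sprayed postemergence, with compounds in non-phytotoxic solvent plus surfactant. Visual injury scored versus controls after 14–21 d in a controlled environment, 0 (no effect) to 100 (complete control).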

[1] = tested on: wheat, winter (winter wheat, Triticum aestivum)
Procedure, shortened: as §1

[2] = tested on: speedwell (bird's-eye speedwell, Veronica persica)
Procedure, shortened: as §1

[3] = tested on: blackgrass (Alopecurus myosuroides)
Procedure, shortened: as §1

[4] = tested on: windgrass (Apera spica-venti)
Procedure, shortened: as §1

[5] = tested on: galium (catchweed bedstraw, Galium aparine)
Procedure, shortened: as §1

[6] = tested on: ryegrass, Italian (Italian ryegrass, Lolium multiflorum)
Procedure, shortened: as §1

[7] = tested on: barley, winter (winter barley, Hordeum vulgare)
Procedure, shortened: as §1

[8] = tested on: lambsquarters (Chenopodium album)
Procedure, shortened: as §1

[9] = tested on: foxtail, green (green foxtail, Setaria viridis)
Procedure, shortened: as §1

[10] = tested on: chickweed (common chickweed, Stellaria media)
Procedure, shortened: as §1

[11] = tested on: pigweed (Amaranthus retroflexus)
Procedure, shortened: as §1

[12] = tested on: deadnettle (henbit deadnettle, Lamium amplexicaule)
Procedure, shortened: as §1

[13] = Postemergence, 31 g ai/ha, scale 0 to 100 (0 no effect, 100 complete control)
[14] = Postemergence, 125 g ai/ha, visual rating on scale 0 (no effect) to 100 (complete control), 14 to 21 d
[15] = Postemergence, 250 g ai/ha, scale 0 to 100 (0 no effect, 100 complete control)
[16] = Preemergence, 62 g ai/ha, scale 0 to 100 (0 no effect, 100 complete control)
[17] = Preemergence, 125 g ai/ha, scale 0 to 100 (0 no effect, 100 complete control)
[18] = Preemergence, 250 g ai/ha, scale 0 to 100 (0 no effect, 100 complete control)
[19] = postemergence, 62 g ai/ha, scale 0 to 100, 0 no effect, 100 complete control

CCOC(=O)Oc1c(C)nn(C)c(=O)c1-c1c(C)ccc2ccccc12 [Compound 73]
Kochia plant response rating (kochia (Kochia scoparia); [13]): 100 | Plant response rating, Kochia (kochia (Kochia scoparia); [14]): 100 | Plant response rating, Kochia (kochia (Kochia scoparia); [15]): 100 | Plant response rating (scale of 0 to 100), Kochia (kochia (Kochia scoparia); Preemergence, 31 g ai/ha): 30 | Plant response rating, Kochia (kochia (Kochia scoparia); [16]): 30 | Plant response rating, Kochia (kochia (Kochia scoparia); [17]): 85 | Plant response rating, Kochia (kochia (Kochia scoparia); [18]): 95 | Plant response rating, Kochia (kochia (Kochia scoparia); [19]): 80 | Wheat, Winter plant response rating [1, 13]: 25 | Plant response rating, Wheat, Winter [1, 14]: 65 | Plant response rating, Wheat, Winter [1, 15]: 75 | Plant response rating (scale of 0 to 100), Wheat, Winter ([1]; Preemergence, 31 g ai/ha): 15 | Plant response rating, Wheat, Winter [1, 16]: 40 | Plant response rating, Wheat, Winter [1, 17]: 50 | Plant response rating, Wheat, Winter [1, 18]: 75 | Plant response rating, Wheat, Winter [1, 19]: 35 | Speedwell plant response rating [2, 13]: 70 | Plant response rating, Speedwell [2, 14]: 100 | Plant response rating, Speedwell [2, 15]: 100 | Plant response rating (scale of 0 to 100), Speedwell ([2]; Preemergence, 31 g ai/ha): 100 | Plant response rating, Speedwell [2, 16]: 100 | Plant response rating, Speedwell [2, 17]: 100 | Plant response rating, Speedwell [2, 18]: 100 | Plant response rating, Speedwell [2, 19]: 100 | Blackgrass plant response rating [3, 13]: 65 | Plant response rating, Blackgrass [3, 14]: 80 | Plant response rating, Blackgrass [3, 15]: 90 | Plant response rating (scale of 0 to 100), Blackgrass ([3]; Preemergence, 31 g ai/ha): 50 | Plant response rating, Blackgrass [3, 16]: 60 | Plant response rating, Blackgrass [3, 17]: 80 | Plant response rating, Blackgrass [3, 18]: 85 | Plant response rating, Blackgrass [3, 19]: 70 | Windgrass plant response rating [4, 13]: 70 | Plant response rating, Windgrass [4, 14]: 75 | Plant response rating, Windgrass [4, 15]: 85 | Plant response rating (scale of 0 to 100), Windgrass ([4]; Preemergence, 31 g ai/ha): 40 | Plant response rating, Windgrass [4, 16]: 65 | Plant response rating, Windgrass [4, 17]: 90 | Plant response rating, Windgrass [4, 18]: 95 | Plant response rating, Windgrass [4, 19]: 70 | Galium plant response rating [5, 13]: 95 | Plant response rating, Galium [5, 14]: 100 | Plant response rating, Galium [5, 15]: 100 | Plant response rating (scale of 0 to 100), Galium ([5]; Preemergence, 31 g ai/ha): 40 | Plant response rating, Galium [5, 16]: 80 | Plant response rating, Galium [5, 17]: 80 | Plant response rating, Galium [5, 18]: 90 | Plant response rating, Galium [5, 19]: 100 | Ryegrass, Italian plant response rating [6, 13]: 70 | Plant response rating, Ryegrass, Italian [6, 14]: 95 | Plant response rating, Ryegrass, Italian [6, 15]: 98 | Plant response rating (scale of 0 to 100), Ryegrass, Italian ([6]; Preemergence, 31 g ai/ha): 95 | Plant response rating, Ryegrass, Italian [6, 16]: 100 | Plant response rating, Ryegrass, Italian [6, 17]: 100 | Plant response rating, Ryegrass, Italian [6, 18]: 100 | Plant response rating, Ryegrass, Italian [6, 19]: 85 | Barley, Winter plant response rating [7, 13]: 15 | Plant response rating, Barley, Winter [7, 14]: 20 | Plant response rating, Barley, Winter [7, 15]: 35 | Plant response rating (scale of 0 to 100), Barley, Winter ([7]; Preemergence, 31 g ai/ha): 5 | Plant response rating, Barley, Winter [7, 16]: 40 | Plant response rating, Barley, Winter [7, 17]: 60 | Plant response rating, Barley, Winter [7, 18]: 75 | Plant response rating, Barley, Winter [7, 19]: 15 | Lambsquarters plant response rating [8, 13]: 95 | Plant response rating, Lambsquarters [8, 14]: 100 | Plant response rating, Lambsquarters [8, 15]: 100 | Plant response rating (scale of 0 to 100), Lambsquarters ([8]; Preemergence, 31 g ai/ha): 95 | Plant response rating, Lambsquarters [8, 16]: 95 | Plant response rating, Lambsquarters [8, 17]: 95 | Plant response rating, Lambsquarters [8, 18]: 100 | Plant response rating, Lambsquarters [8, 19]: 95 | Foxtail, Green plant response rating [9, 13]: 65 | Plant response rating, Foxtail, Green [9, 14]: 75 | Plant response rating, Foxtail, Green [9, 15]: 80 | Plant response rating (scale of 0 to 100), Foxtail, Green ([9]; Preemergence, 31 g ai/ha): 15 | Plant response rating, Foxtail, Green [9, 16]: 20 | Plant response rating, Foxtail, Green [9, 17]: 50 | Plant response rating, Foxtail, Green [9, 18]: 100 | Plant response rating, Foxtail, Green [9, 19]: 70 | Chickweed plant response rating [10, 13]: 90 | Plant response rating, Chickweed [10, 14]: 100 | Plant response rating, Chickweed [10, 15]: 100 | Plant response rating (scale of 0 to 100), Chickweed ([10]; Preemergence, 31 g ai/ha): 95 | Plant response rating, Chickweed [10, 16]: 90 | Plant response rating, Chickweed [10, 17]: 100 | Plant response rating, Chickweed [10, 18]: 100 | Plant response rating, Chickweed [10, 19]: 95 | Pigweed plant response rating [11, 13]: 100 | Plant response rating, Pigweed [11, 14]: 100 | Plant response rating, Pigweed [11, 15]: 100 | Plant response rating (scale of 0 to 100), Pigweed ([11]; Preemergence, 31 g ai/ha): 70 | Plant response rating, Pigweed [11, 16]: 100 | Plant response rating, Pigweed [11, 17]: 100 | Plant response rating, Pigweed [11, 18]: 100 | Plant response rating, Pigweed [11, 19]: 100 | Deadnettle plant response rating [12, 13]: 75 | Plant response rating, Deadnettle [12, 14]: 100 | Plant response rating, Deadnettle [12, 15]: 100 | Plant response rating (scale of 0 to 100), Deadnettle ([12]; Preemergence, 31 g ai/ha): 0 | Plant response rating, Deadnettle [12, 16]: 0 | Plant response rating, Deadnettle [12, 17]: 70 | Plant response rating, Deadnettle [12, 18]: 100 | Plant response rating, Deadnettle [12, 19]: 90

From patent US10597388B2, “Pyridazinone herbicides” (FMC CORPORATION, priority 2014, dated 2020)
